Experimental data: publication PMC10175918 (Communications Biology, 2023)
Where two headings read alike, the source gives them in different places.

Legend:
Experiment in all cases: TGFα-shedding assay-based GPCR screening with chimeric Gα subunit proteins
Type in all cases: cell-based
348 GPCRs [1] = biological target: T1, 348 GPCRs (Homo sapiens, UniProt Q16581); conditions: 10µM, Favipiravir 100μM
T1 sequence (Q16581 1-482): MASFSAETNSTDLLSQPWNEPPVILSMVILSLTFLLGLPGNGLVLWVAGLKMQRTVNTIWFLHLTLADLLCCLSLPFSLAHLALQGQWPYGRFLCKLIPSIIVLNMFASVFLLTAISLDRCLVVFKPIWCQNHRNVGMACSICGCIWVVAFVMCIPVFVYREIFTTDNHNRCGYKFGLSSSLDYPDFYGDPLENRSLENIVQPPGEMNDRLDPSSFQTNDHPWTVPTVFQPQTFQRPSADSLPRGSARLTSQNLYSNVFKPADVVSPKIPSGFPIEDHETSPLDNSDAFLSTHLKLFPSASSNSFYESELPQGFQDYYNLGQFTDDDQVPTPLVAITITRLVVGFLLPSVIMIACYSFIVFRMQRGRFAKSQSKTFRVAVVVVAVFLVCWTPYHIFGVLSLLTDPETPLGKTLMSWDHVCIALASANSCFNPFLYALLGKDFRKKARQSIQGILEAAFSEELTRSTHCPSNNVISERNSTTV

348 GPCRs [2] = biological target: T2, 348 GPCRs (Homo sapiens, UniProt Q96P68)
T2 construct: expressed in transfected cells; host or cells: HEK293A

348 GPCRs [3] = biological target: T3, 348 GPCRs (Homo sapiens, UniProt Q96P67); conditions: 10µM, Favipiravir 100μM
T3 construct: expressed in transfected cells; host or cells: HEK293A

348 GPCRs [4] = biological target: T4, 348 GPCRs (Homo sapiens, UniProt P30411); conditions: 10µM, Favipiravir 100μM
T4 sequence (P30411 1-391): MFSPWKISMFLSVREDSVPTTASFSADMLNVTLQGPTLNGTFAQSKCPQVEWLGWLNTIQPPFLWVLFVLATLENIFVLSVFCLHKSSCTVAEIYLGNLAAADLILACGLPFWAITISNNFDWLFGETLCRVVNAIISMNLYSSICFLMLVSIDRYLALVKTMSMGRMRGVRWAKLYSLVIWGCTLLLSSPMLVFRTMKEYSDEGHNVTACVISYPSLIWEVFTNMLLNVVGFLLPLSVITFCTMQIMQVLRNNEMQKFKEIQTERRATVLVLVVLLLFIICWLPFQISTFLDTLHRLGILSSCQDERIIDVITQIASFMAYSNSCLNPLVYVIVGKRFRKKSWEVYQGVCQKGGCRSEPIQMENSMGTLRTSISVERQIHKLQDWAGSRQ

348 GPCRs [5] = biological target: T5, 348 GPCRs (Homo sapiens, UniProt P04201)
T5 construct: expressed in transfected cells; host or cells: HEK293A
T5 sequence (P04201 1-325): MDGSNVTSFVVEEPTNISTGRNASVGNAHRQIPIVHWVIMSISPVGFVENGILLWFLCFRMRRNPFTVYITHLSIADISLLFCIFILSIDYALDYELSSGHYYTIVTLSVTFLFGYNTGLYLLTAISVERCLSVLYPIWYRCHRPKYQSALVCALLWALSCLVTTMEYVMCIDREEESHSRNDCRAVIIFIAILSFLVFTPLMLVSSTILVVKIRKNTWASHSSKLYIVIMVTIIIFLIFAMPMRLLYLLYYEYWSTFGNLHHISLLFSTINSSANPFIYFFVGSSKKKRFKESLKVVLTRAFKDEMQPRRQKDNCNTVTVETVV

348 GPCRs [6] = biological target: T6, 348 GPCRs (Homo sapiens, UniProt Q99705)
T6 construct: expressed in transfected cells; host or cells: HEK293A

348 GPCRs [7] = biological target: T7, 348 GPCRs (Homo sapiens, UniProt Q9Y5N1); conditions: 10µM, Favipiravir 100μM
T7 construct: expressed in transfected cells; host or cells: HEK293A

348 GPCRs [8] = biological target: T8, 348 GPCRs (Homo sapiens, UniProt Q9Y653)
T8 construct: expressed in transfected cells; host or cells: HEK293A

348 GPCRs [9] = biological target: T9, 348 GPCRs (Homo sapiens, UniProt O60883); conditions: 10µM, Favipiravir 100μM
T9 construct: expressed in transfected cells; host or cells: HEK293A
T9 sequence (O60883 26-481): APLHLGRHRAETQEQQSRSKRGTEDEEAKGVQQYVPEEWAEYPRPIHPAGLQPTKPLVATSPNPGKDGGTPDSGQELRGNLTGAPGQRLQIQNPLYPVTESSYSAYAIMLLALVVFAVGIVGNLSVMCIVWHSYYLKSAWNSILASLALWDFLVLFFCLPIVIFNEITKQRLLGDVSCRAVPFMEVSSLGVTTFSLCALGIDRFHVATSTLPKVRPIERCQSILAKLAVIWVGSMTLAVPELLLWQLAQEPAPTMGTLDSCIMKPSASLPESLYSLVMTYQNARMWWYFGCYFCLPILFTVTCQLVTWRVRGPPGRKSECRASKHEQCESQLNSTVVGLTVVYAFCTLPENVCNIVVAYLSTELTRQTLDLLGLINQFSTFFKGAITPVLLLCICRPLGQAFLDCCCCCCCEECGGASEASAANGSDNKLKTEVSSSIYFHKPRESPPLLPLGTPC

[10] = C3AR1 (complement C3a receptor 1), read-out: % GPCR activation compared to TPA
[11] = GPCR OXGR1 (oxoglutarate (alpha-ketoglutarate) receptor 1), read-out: % GPCR activation compared to TPA
[12] = GPR82 (G Protein-Coupled Receptor 82), read-out: % GPCR activation compared to TPA
[13] = B2 (bradykinin receptor B2), read-out: % GPCR activation compared to TPA
[14] = GPCR MAS1 (MAS1 oncogene), read-out: % GPCR activation compared to TPA
[15] = GPCR MCHR1 (melanin concentrating hormone receptor 1), read-out: % GPCR activation compared to TPA
[16] = H3 (histamine receptor H3), read-out: % GPCR activation compared to TPA
[17] = GPCR GPR56 (G protein-coupled receptor 56), read-out: % GPCR activation compared to TPA
[18] = GPR37L1 (G Protein-Coupled Receptor 37 Like 1), read-out: % GPCR activation compared to TPA
[19] = read-out: % GPCR activation compared to TPA, C3AR1 (complement C3a receptor 1)
[20] = read-out: % GPCR activation compared to TPA, GPCR OXGR1 (oxoglutarate (alpha-ketoglutarate) receptor 1)
[21] = read-out: % GPCR activation compared to TPA, GPR82 (G Protein-Coupled Receptor 82)
[22] = read-out: % GPCR activation compared to TPA, B2 (bradykinin receptor B2)
[23] = read-out: % GPCR activation compared to TPA, GPCR MAS1 (MAS1 oncogene)
[24] = read-out: % GPCR activation compared to TPA, GPCR MCHR1 (melanin concentrating hormone receptor 1)
[25] = read-out: % GPCR activation compared to TPA, H3 (histamine receptor H3)
[26] = read-out: % GPCR activation compared to TPA, GPCR GPR56 (G protein-coupled receptor 56)
[27] = read-out: % GPCR activation compared to TPA, GPR37L1 (G Protein-Coupled Receptor 37 Like 1)

T8 sequence (Q9Y653 26-693): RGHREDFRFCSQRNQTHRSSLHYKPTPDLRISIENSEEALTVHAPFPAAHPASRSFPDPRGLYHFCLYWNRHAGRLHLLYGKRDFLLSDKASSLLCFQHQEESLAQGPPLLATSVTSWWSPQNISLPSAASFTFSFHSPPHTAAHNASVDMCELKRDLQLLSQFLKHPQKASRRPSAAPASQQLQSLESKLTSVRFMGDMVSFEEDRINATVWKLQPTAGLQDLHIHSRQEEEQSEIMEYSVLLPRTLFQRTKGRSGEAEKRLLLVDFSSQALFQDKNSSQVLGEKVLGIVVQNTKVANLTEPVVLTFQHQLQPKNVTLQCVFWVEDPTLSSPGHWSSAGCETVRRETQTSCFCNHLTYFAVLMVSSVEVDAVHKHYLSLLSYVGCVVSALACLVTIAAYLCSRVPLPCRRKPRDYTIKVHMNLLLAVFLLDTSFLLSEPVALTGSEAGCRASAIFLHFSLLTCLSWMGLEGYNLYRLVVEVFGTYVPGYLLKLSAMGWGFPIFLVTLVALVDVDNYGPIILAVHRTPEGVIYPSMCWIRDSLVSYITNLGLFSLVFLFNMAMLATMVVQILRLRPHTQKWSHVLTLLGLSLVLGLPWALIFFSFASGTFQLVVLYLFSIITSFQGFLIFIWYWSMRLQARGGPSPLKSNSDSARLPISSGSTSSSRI
T3 sequence (Q96P67 whole entry): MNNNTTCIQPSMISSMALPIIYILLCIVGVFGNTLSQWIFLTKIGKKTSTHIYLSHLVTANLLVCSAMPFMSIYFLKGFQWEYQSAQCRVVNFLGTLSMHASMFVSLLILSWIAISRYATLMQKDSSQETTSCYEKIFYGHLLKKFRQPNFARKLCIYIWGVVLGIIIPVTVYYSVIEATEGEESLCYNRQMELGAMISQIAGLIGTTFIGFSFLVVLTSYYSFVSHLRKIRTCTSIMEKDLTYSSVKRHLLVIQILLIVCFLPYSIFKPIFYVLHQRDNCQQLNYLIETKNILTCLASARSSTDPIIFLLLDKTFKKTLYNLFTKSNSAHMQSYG
T7 sequence (Q9Y5N1 whole entry): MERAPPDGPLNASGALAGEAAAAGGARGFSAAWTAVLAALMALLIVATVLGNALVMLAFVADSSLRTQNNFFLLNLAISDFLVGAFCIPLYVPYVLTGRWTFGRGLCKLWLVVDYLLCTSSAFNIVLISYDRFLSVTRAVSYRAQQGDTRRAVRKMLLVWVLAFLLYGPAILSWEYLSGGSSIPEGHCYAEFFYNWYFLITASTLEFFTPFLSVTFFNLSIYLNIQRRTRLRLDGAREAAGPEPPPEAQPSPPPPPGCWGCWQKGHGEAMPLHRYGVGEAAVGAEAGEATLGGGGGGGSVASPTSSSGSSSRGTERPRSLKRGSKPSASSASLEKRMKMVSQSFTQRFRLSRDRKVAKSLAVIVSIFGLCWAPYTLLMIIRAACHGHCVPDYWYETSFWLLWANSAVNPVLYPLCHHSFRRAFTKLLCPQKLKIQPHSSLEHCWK
T6 sequence (Q99705 whole entry): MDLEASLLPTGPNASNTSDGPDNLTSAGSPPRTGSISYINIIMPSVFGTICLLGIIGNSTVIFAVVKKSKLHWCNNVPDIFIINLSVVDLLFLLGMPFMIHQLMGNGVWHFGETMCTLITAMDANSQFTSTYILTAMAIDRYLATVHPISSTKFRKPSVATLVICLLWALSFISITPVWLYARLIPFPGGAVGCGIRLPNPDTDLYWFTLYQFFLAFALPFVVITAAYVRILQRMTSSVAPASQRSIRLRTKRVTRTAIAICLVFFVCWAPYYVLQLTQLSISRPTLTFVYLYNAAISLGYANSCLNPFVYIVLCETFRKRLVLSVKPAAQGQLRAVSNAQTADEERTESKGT

activation at 10 µM (348 GPCRs [1]; [10])	activation at 10 µM (348 GPCRs [2]; [11])	activation at 100 µM (348 GPCRs [3]; [12])	activation at 10 µM (348 GPCRs [4]; [13])	activation at 10 µM (348 GPCRs [5]; [14])	activation at 10 µM (348 GPCRs [6]; [15])	activation at 100 µM (348 GPCRs [7]; [16])	activation at 10 µM (348 GPCRs [8]; [17])	activation at 10 µM (348 GPCRs [9]; [18])	SMILES	activation at 10 µM (348 GPCRs [1]; [19])	activation at 10 µM (348 GPCRs [2]; [20])	activation at 100 µM (348 GPCRs [3]; [21])	activation at 10 µM (348 GPCRs [4]; [22])	activation at 10 µM (348 GPCRs [5]; [23])	activation at 10 µM (348 GPCRs [6]; [24])	activation at 100 µM (348 GPCRs [7]; [25])	activation at 10 µM (348 GPCRs [8]; [26])	activation at 10 µM (348 GPCRs [9]; [27])	other results
3.33%	-0.462%	-1.55%	-3%	-19.1%	-1.77%	0.59%	-3.73%	-2.03%	N#C[C@@]1(c2ccc3c(N)ncnn23)O[C@H](CO)[C@@H](O)[C@H]1O [GS441524]	–	–	–	–	–	–	–	–	–	–
1.69%	–	-0.0995%	1.08%	–	–	0.315%	–	-2.32%	NC(=O)c1nc(F)cnc1O [favipiravir, 6-fluoro-3-hydroxy-2-pyrazinecarboxamide]	–	–	–	–	–	–	–	–	–	activation at 100 µM (348 GPCRs [2]; GPCR OXGR1 (oxoglutarate (alpha-ketoglutarate) receptor 1), 100μM, read-out: % GPCR activation compared to TPA): -1.07%; activation at 100 µM (348 GPCRs [5]; GPCR MAS1 (MAS1 oncogene), 100μM, read-out: % GPCR activation compared to TPA): -7.84%; activation at 100 µM (348 GPCRs [6]; GPCR MCHR1 (melanin concentrating hormone receptor 1), 100μM, read-out: % GPCR activation compared to TPA): -2.9%; activation at 100 µM (348 GPCRs [8]; GPCR GPR56 (G protein-coupled receptor 56), 100μM, read-out: % GPCR activation compared to TPA): -0.74%
-0.773%	0.239%	-1.43%	1.04%	-15.3%	-2.69%	-0.295%	-2.2%	-1.63%	CC(C)C(=O)OC[C@H]1O[C@@H](n2ccc(NO)nc2=O)[C@H](O)[C@@H]1O [molnupiravir]	–	–	–	–	–	–	–	–	–	–
–	–	–	–	–	–	–	–	–	CCC(CC)COC(=O)[C@H](C)N[P@](=O)(OC[C@H]1O[C@@](C#N)(c2ccc3c(N)ncnn23)[C@H](O)[C@@H]1O)Oc1ccccc1 [remdesivir]	6.7%	0.444%	-0.315%	1.57%	21.3%	-1.97%	0.0878%	-0.797%	-2.18%	–
–	–	–	–	–	–	–	–	–	CC(C)OC(=O)[C@H](C)N[P@](=O)(OC[C@H]1O[C@@H](n2ccc(=O)[nH]c2=O)[C@](C)(F)[C@@H]1O)Oc1ccccc1 [sofosbuvir]	-0.133%	1.77%	0.262%	0.561%	2.48%	-4.22%	-2.02%	0.191%	-1.91%	–
